According to US20040151785A1, “Method for treating insulin resistance through hepatic nitric oxide” (DiaMedica Inc., priority 1998, published 2004):
Like-named read-outs stand apart in the source and are kept apart here.

Assays:
cats = conditions: cited from earlier work
rats [1] = experiment: Rapid insulin sensitivity test (RIST), modified euglycemic clamp, in anesthetized rats; type: in vivo, rat; conditions: for inhibition at 50 mg/kg: Rattus norvegicus, iv
Experimental: Surgical preparation. The left jugular vein was cannulated for glucose infusion. Spontaneous respiration was allowed through a tracheal tube. The blood samples (25 μl) were obtained through a right femoral arterial-venous loop (30). The right femoral artery was cannulated with the arterial side of the loop. The right femoral vein was cannulated with the venous side of the arterial-venous loop. Arterial blood pressure was monitored via the arterial-venous loop by clamping the silicon sleeve on the venous side of the loop. One of the advantages of using this loop is that blood samples can be taken directly from a moving stream of blood with no need to wash or flush sampling catheters. The arterial blood continuously flows through the loop into the venous side. Intravenous infusions, except glucose, were given through the venous side of the loop.

rats [2] = experiment: Arterial blood pressure monitored via arterial-venous loop during RIST experiments; type: in vivo, rat; conditions: after atropine, group given intravenous L-NAME 1.0 mg/kg
Experimental: Surgical preparation. The left jugular vein was cannulated for glucose infusion. Spontaneous respiration was allowed through a tracheal tube. The blood samples (25 μl) were obtained through a right femoral arterial-venous loop (30). The right femoral artery was cannulated with the arterial side of the loop. The right femoral vein was cannulated with the venous side of the arterial-venous loop. Arterial blood pressure was monitored via the arterial-venous loop by clamping the silicon sleeve on the venous side of the loop. One of the advantages of using this loop is that blood samples can be taken directly from a moving stream of blood with no need to wash or flush sampling catheters. The arterial blood continuously flows through the loop into the venous side. Intravenous infusions, except glucose, were given through the venous side of the loop. After laparotomy, the portal vein was cannulated with a 24G (OPTIVA™, Johnson & Johnson Medical Inc.) intravenous catheter for intraportal drug administration.

Structure (SMILES): COc1ccccc1CNCCCCCCNCCCCCCCCNCCCCCCNCc1ccccc1OC [methoctramine]
- dose required to produce a full / similar degree of insulin resistance (cats): 10^−8 μmol/kg

Structure (SMILES): [NH-]c1c[n+](N2CCOCC2)no1 [SIN-1, 3-morpholinosyndnonimine]
- inhibition of the control RIST remaining (rats [1]; SIN-1 5.0 mg/kg intraportal after intraportal L-NMMA 0.73 mg/kg, n=5): 24.0±11.6%
- inhibition of the control RIST remaining (rats [1]; SIN-1 5.0 mg/kg intravenous after intraportal L-NMMA 0.73 mg/kg, n=4): 59.0±7.2%
- inhibition of the control RIST remaining (rats [1]; SIN-1 10.0 mg/kg intraportal after intraportal L-NMMA 0.73 mg/kg, n=5): 0.6±5.8%
- inhibition of the control RIST remaining (rats [1]; SIN-1 10.0 mg/kg intraportal after surgical denervation of the hepatic anterior plexus, n=6): 3.8±10.4%

Structure (SMILES): CN1CCN(CC(=O)N2c3ccccc3C(=O)Nc3cccnc32)CC1 [parenzepine]
- dose achieving a similar degree of insulin resistance (cats): 10^−7 mmol/kg

Structure (SMILES): N=C(N)NCCC[C@H](N)C(=O)O [L-arginine]
- inhibition at 50 mg/kg (rats [1]; read-out: inhibition of control RIST): 53.8 ± 7.1%
- inhibition at 50 mg/kg (rats [1]; read-out: inhibition of the control response): 48.8 ± 8.2%

Structure (SMILES): CN1[C@@H]2CC[C@H]1C[C@@H](OC(=O)C(CO)c1ccccc1)C2 (stereo partly drawn) [atropine]
- blood pressure (rats [2]): 93.0±8.6 mmHg
